Reference: ChEMBL document CHEMBL1124053, “Synthesis, pharmacology, and molecular modeling studies of semirigid, nicotinic agonists” (1988)

assay: Potency (reciprocal of the equipotent molar ratio compared to carbamylcholine), estimated by contracture of the frog rectus abdominis muscle; type: functional

**Q.** Which Potency does the source give for `CC(=O)C1CC[N+](C)(C)CC1` here?
**A.** Its Potency is 9.1.

**Q.** For `C[C@H](O)C1=CC[N+](C)(C)CC1`, which Potency is on record?
**A.** The Potency was 2.

**Q.** For `C[C@H](O)C1CC[N+](C)(C)CC1`, which Potency is on record?
**A.** Its Potency is 0.25.

**Q.** Which Potency does the source give for `C[N+]1(C)CCC(=NO)CC1` here?
**A.** The Potency was 0.0055.

**Q.** For `C[N+]1(C)CC=C(CO)CC1`, which Potency is on record?
**A.** Its Potency is 0.35.

**Q.** For `CC(=O)C1=CC[N+](C)(C)CC1`, which Potency is on record?
**A.** Its Potency is 50.

**Q.** Which Potency does the source give for `C[N+]1(C)CCN(C(=O)C(F)(F)F)CC1` here?
**A.** The Potency was 4.6.

**Q.** Which Potency does the source give for `CC(=O)N1CC[N+](C)(C)CC1` here?
**A.** The Potency was 2.6.
